Test results taken from patent publication US6455590B1, “Deprenyl compounds for treatment of glaucoma” (University of Toronto Innovations.Foundation, priority 1995, dated 2002).

Legend:
[1] = tested on: retinal ganglion cells projecting to the superior colliculus (RGC^SCs) / RGCL neuronal cell bodies; experiment: Optic nerve crush in rats: counts of Nissl-stained and Fluoro-Gold-labelled cell bodies in the retinal ganglion cell layer; type: in vivo; settings: for counts of RGCL neuronal cell bodies (RGCLncbs) per mm length of retinal cross-section: Nissl stain, FIG. 1
Source text: All animals were handled according to the Declaration of Helsinki and The Guiding Principles in the Care and Use of Animals. […] The injections were delivered from a 10 microliter Hamilton syringe over a period of fifteen minutes.
It has been reported that 40-50% of the neurons whose cell bodies are located in the retinal ganglion cell layer (RGCL) of the rat send an axon to the optic nerve and are RGCs (Cowey et al. (1979) Exp. Brain Res. 35, 457-64; Perry V. H. (1981) Neuroscience 6, 931-44: and Linden et al. (1989) Brain Res. 272, 145-149). […] Most RGCs (>95%) in rats send their axons to the SC with as many as 10% also sending branches to the lateral geniculate body (Cowey et al. (1979) Exp. Brain Res. 35, 457-64).
Four days were allowed for the retrograde transport of the FG to the RGC^SCs cell bodies and then the left optic nerve of the rats was exposed and crushed by applying the tips of Dumont number 5 forceps to the nerve immediately behind the globe for ten seconds. Careful attention was used to avoid the central retinal artery. Each nerve was crushed three times at the same site. Following the crushes, the nerve was examined with the aid of an operating microscope to ensure that the axonal component of the nerve was divided into two clearly separated stumps surrounded by an unbroken dural sheath. Retinal artery patency was confirmed by direct ophthalmoscopy.
One group of eight rats received (−)-deprenyl (1 mg/kg) by intraperitoneal (IP) injection every two days for a fourteen day period beginning at the time of optic nerve crush. The remaining group of eight rats received IP injections of saline on the same schedule. Fourteen days after the optic nerve crush all sixteen rats were euthanized with an overdose of somnotol and perfused transcardially with 4% paraformaldehyde in phosphate buffer. The brains and retinas were immersed in 20% sucrose for twenty four hours and then frozen in −70 degrees C methylbutane. Serial […] sections were cut through the upper brain stem and diencephalon of the animals and viewed under fluorescence microscopy to determine the location and extent of the stereotactic injections of FG. Serial […] sections of the retinas were cut and every third section was Nissl stained. In order to detect even low level FG fluorescence in neuronal cell bodies or processes, the FG labelled brain sections and the retinal sections were examined with the aid of a Hamarmatsu intensification camera that allowed the fluorescent images to be digitized using a Matrox frame grabber controlled by image analysis software (Universal Metamorph). This allowed for the creation of computer images of neuronal cell bodies containing FG in the sections taken from areas of the stereotactic injections and sections taken through each of the retinas.
About 25 sections were chosen randomly from the serial sections taken from each retina. Sections were only chosen from the middle 70% of the serial sections where section length exceeded 6 mm. Nissl stained cell bodies in the RGCL were counted at 1000× magnification under oil immersion on a Leitz Orthoplan microscope. RGCL somata were only counted if they contained a well defined nucleus. The cross sectional length of the ganglion cell layer for each section was measured by transferring the retinal section image into a computer using a CCD camera (Dage Ltd.) and IPPLUS 2.1 software (Media Cybernetics). The number of RGCL neuronal cell bodies (RGCLncbs) per mm length of retinal crossection was calculated and were pooled for each of the four lesion/treatment groups (uncrushed-saline, uncrushed-deprenyl, crushed-saline and crushed-deprenyl).
A similar group of sections were randomly chosen from one of the two remaining series of retinal sections. […]

[2] = Stability of deprenyl as a function of the pH of the medium; type: physicochemical; settings: pH about 3-5 versus pH about 7
Source text: The stability of deprenyl can be affected by the pH of the medium in which the deprenyl is formulated. […] Therefore, when formulating a deprenyl compound in a pharmaceutical composition, it is preferred that the deprenyl compound be maintained at a suitable pH. In preferred embodiments, a pharmaceutical composition of the invention has a pH in the range of about 3 to about 5, more preferably about 3 to about 4. Furthermore, ethyl alcohol is a preferred solvent for improving stability of deprenyl. Thus, in certain embodiments, alcoholic or aqueous alcoholic media are preferred for the pharmaceutical compositions of the invention.

cell death = experiment: Animal and cell-culture studies of prevention of cell death with the P450 inhibitor Proadifen; settings: co-administration of the P450 inhibitor Proadifen
Source text: It is believed that certain deprenyl compounds can be at least partially metabolized in vivo after administration to a subject. For example, (−)-deprenyl can be metabolized by the liver to (−)-desmethyldeprenyl, as well as (−)-methamphetamine and (−)-amphetamine, after oral administration. The hepatic metabolism of (−)-deprenyl can be inhibited by administration of a P450 inhibitor such as Proadifen. […] It is presently believed that (−)-methamphetamine and (−)-amphetamine are inhibitors of the cell-rescuing activity of deprenyl compounds. […] Absence of MAO inhibitor activity may in fact provide a drug with fewer side effects.

## C#CCN(C)C(C)Cc1ccccc1 (single isomer, unassigned; (-)) [(−)-deprenyl, N,α-dimethyl-N-2-propynylphenethylamine]
[1]; crushed optic nerve, 14 days after crush, (−)-deprenyl 1 mg/kg IP every two days
  counts of RGCL neuronal cell bodies (RGCLncbs) per mm length of retinal cross-section: 32.60+/−9.94
[1]; crushed optic nerve, 14 days, crushed saline 3.0%, FIG. 3
  RGC^SCs as percentage of the mean value of the distribution for the uncrushed saline retinas: 36.9+/−11.2%
[1]; crushed optic nerve, 14 days, crushed saline 46%
  numbers of neuronal cell bodies/mm in the RGCL as average percent of those in uncrushed saline retinae: 65%
[1]; crushed retinas, FIG. 2
  slope of FG labelled versus Nissl stained cell body counts: 0.219+/−0.019
[1]; crushed retinas, crushed saline 0.003
  mean ratio of FG labelled to Nissl stained somata: 0.245+/−0.055
[1]; crushed retinas, estimated assuming 40-50% of RGCL neurons do not send axons to the optic nerve, crushed saline less than 10%
  survival of RGCs at fourteen days: 30-40%
[1]; uncrushed optic nerve, (−)-deprenyl 1 mg/kg IP every two days for 14 days
  counts of RGCL neuronal cell bodies (RGCLncbs) per mm length of retinal cross-section: 48.39+/−8.48 /mm
[2]
  stability depending on pH of the medium: more stable at a pH in the range of about 3-5 than at a pH of about 7
Cell death
  effect of Proadifen on cell-rescuing activity (prevention of cell death): Proadifen reduces the ability of (−)-deprenyl to prevent cell death

## C#CCN[C@H](C)Cc1ccccc1 [(−)-desmethyldeprenyl]
Cell death
  effect of Proadifen on cell-rescuing activity (prevention of cell death): does not block the cell-rescuing activity
